According to patent publication US20250332112A1, “IONIZABLE CATIONIC LIPIDS FOR LIPID NANOPARTICLES” (GENEVANT SCIENCES GMBH, priority 2022, published 2025):

Assays:
[1] = Particle characteristics of LNPs containing luciferase mRNA and novel ionizable lipids; type: physicochemical
Procedure: The lipid solution contains 4 components: a PEG-conjugated lipid, an ionizable lipid, cholesterol, and a phospholipid (e.g., DSPC). Lipid stocks were prepared using the lipid identities and molar ratios as described, to achieve a total concentration of ˜7 mg/mL in 100% ethanol. Firefly luciferase mRNA (TriLink Biotechnologies, L-7202) or ornithine transcarbamylase (OTC) mRNA (TriLink Biotechnologies, custom designed) was diluted in acetate, pH 5 buffer and nuclease free water to achieve a target concentration of 0.366 mg/mL mRNA in 100 mM acetate, pH 5. Equal volumes of the lipid and nucleic acid solutions were blended at a flow rate of 400 mL/min through a T-connector, and diluted with ˜4 volumes of PBS, pH 7.4. Formulations were placed in Slide-A-Lyzer dialysis units (MWCO 10,000) and dialyzed overnight against 10 mM Tris, 500 mM NaCl, pH 8 buffer. Following dialysis, the formulations were concentrated to ˜0.6 mg/mL using VivaSpin concentrator units (MWCO 100,000) and dialyzed overnight against 5 mM Tris, 10% sucrose, pH 8 buffer. Formulations were filtered through a 0.2 μm syringe filter (PES membrane). Nucleic acid concentration was determined by the RiboGreen assay. Particle size and polydispersity were determined using a Malvern Nano Series Zetasizer.
LNP formulations containing novel ionizable lipids all produced stable particles with high encapsulation efficiency (Tables 1-7).

[2] = tested on: luciferase activity in the liver; assay: Luciferase activity in liver after intravenous luciferase mRNA LNP; type: in vivo; conditions: 0.5 mg/kg IV, 6 h post-IV administration, BALB/c mice (n = 4)
Procedure: Frozen aliquots of liver were thawed and homogenized in 1 mL of 1×CCLR (Cell Culture Lysis Reagent) using a FastPrep® homogenizer. The homogenate was then centrifuged at 16,000 RPM for 10 minutes at 4° C. Twenty (20) μL of the supernatant was loaded into a 96-well white plate and luminescence measured following addition of luciferase reagent (Promega Luciferase Assay System). Luciferase activity was determined by comparing luminescence of the homogenized samples to luciferase protein standards. To account for any quenching of luminescence by components in the liver homogenate, luciferase was added to the liver homogenates of untreated animals and the resulting luminescence measured. The resulting quench factor was applied to all samples to obtain the corrected luciferase activity, and normalized per unit mass of tissue analyzed.

[3] = Table 2, luciferase mRNA LNP 1.6:54.6:32.8:10.9
[4] = Table 5, luciferase mRNA LNP 1.6:54.6:32.8:10.9
[5] = Table 1, luciferase mRNA LNP 1.6:54.6:32.8:10.9
[6] = Table 4, luciferase mRNA LNP 1.6:54.6:32.8:10.9

Row | SMILES | Final Product % EE [1, 3] | Final Product PDI [1, 3] | Final Product Z-avg [1, 3] | Luc Activity ([2]; Table 9) | also measured
1 | CCCCC/C=C\CCCC(CCC/C=C\CCCCC)=NNC(=O)CC(CCCCCCCCC)N(CCCN(C)C)C(=O)CCCCCCCCC (centres unmarked) [Compound 56, N-(3-(Dimethylamino)propyl)-N-(1-(2-((6Z,15Z)-henicosa-6,15-dien-11-ylidene)hydrazineyl)-1-oxododecan-3-yl)decanamide] | 96% | (0.10) | 97 nm | 9.00E+06 pg/g liver | –
2 | CCCCCCCCCC(CC(=O)OCC(CCCCCC)CCCCCCCC)N(CCCN(C)C)C(=O)CCCCCCC(=O)OCC(CCCC)CCCCCC (centres unmarked) [Compound 22, 2-Hexyldecyl 3-(8-((2-butyloctyl)oxy)-N-(3-(dimethylamino)propyl)-8-oxooctanamido)-dodecanoate] | 98% | (0.04) | 74 nm | 4.71E+07 pg/g liver | –
3 | CCCCCCCCCC(=O)N(CCCN(C)C)C(CCCCCCCCC)CC(=O)NN=C(CCCCCCCC)CCCCCCCC (centres unmarked) [Compound 55, N-[3-(dimethylamino)propyl]-N-{1-[N′-(heptadecan-9-ylidene)hydrazinecarbonyl]undecan-2-yl}decanamide] | 98% | (0.17) | 94 nm | 1.22E+06 pg/g liver | –
4 | CCCCCCCCCCON(C(=O)CCCN(C)C)C(CCCCCCCCCC)CCCCCC(=O)OCC(CCCCCC)CCCCCCCC (centres unmarked) [Compound 44, 2-Hexyldecyl 7-(N-(decyloxy)-4-(dimethylamino)butanamido)heptadecanoate] | – | – | – | – | Final Product % EE [1, 4]: 98%; Final Product PDI [1, 4]: 0.06; Final Product Z-avg [1, 4]: 68 nm; Luc Activity ([2]; Table 12): 6.17E+07 pg/g liver
5 | CCCCCCCCCCOC(=O)CC(CCCCCCCCC)N(CCCN(C)C)S(=O)(=O)CC(CCCCCC)CCCCCCCC (centres unmarked) [Compound 50, Decyl 3-{N-[3-(dimethylamino)propyl]2-hexyldecanesulfonamido}dodecanoate] | – | – | – | – | Final Product % EE [1, 5]: 93%; Final Product PDI [1, 5]: 0.07; Final Product Z-avg ([1]; Table 1, luciferase mRNA LNP 1.6:54.6:32.8:10.9 PEG2000-C-DMA:Ionizable lipid:Cholesterol:DSPC): 61 nm; Luc Activity ([2]; Table 8): 4.82E+06 pg/g liver
6 | CCCCCCCCCCC(CCCCCC(=O)OCC(CCCCCC)CCCCCCCC)N(OCCCN(C)C)C(=O)CCCCCCCCC (centres unmarked) [Compound 42, 2-hexyldecyl 7-{N-[3-(dimethylamino)propoxy]decanamido}heptadecanoate] | – | – | – | – | Final Product % EE [1, 4]: 97%; Final Product PDI [1, 4]: 0.10; Final Product Z-avg [1, 4]: 65 nm; Luc Activity ([2]; Table 12): 1.14E+07 pg/g liver
7 | CCCCCCCCCCC(CCCCCC(=O)OCCCCC(CCCCCCCC)CCCCCCCC)N(CCCN(C)C)C(=O)CCCCCCC(=O)OC(CC)CCCCCCCC (centres unmarked) [Compound 27, 5-Octyltridecyl 7-(N-(3-(dimethylamino)propyl)-8-oxo-8-(undecan-3-yloxy)octanamido)-heptadecanoate] | – | – | – | – | Final Product % EE [1, 6]: 98%; Final Product PDI [1, 6]: 0.04; Final Product Z-avg [1, 6]: 86 nm; Luc Activity ([2]; Table 11): 9.17E+06 pg/g liver
8 | CCCCCCCCCC(=O)N(CCCN(C)C)C(CCCCCCCCC)CC(=O)NN(CCCCCCCC)CCCCCCCC (centres unmarked) [Compound 53, N-[3-(dimethylamino)propyl]-N-[1-(N′,N′-dioctylhydrazinecarbonyl)undecan-2-yl]decanamide] | 97% | (0.07) | 106 nm | 8.02E+06 pg/g liver | –
